# Source: publication PMC7485140 (Clinical Pharmacology and Therapeutics, 2020)
# Like-named read-outs stand apart in the source and are kept apart here. Starred links: 1 amine or outer side, 2 acyl side, 3 side chain; linkers in the order of their positions; H or OH if unused. Positions of bridges follow the written chain, without caps; N, C: chain ends. Non-standard residues stand in square brackets, D forms with d. Residues, ends and D or L forms follow the SMILES beside them. *: point of attachment. pTerphenylCO(4''-OnC5H11) = CCCCCOc1ccc(-c2ccc(-c3ccc(C(=O)*)cc3)cc2)cc1; Orn(4R-OH,5R-OH) = O=C([C@H](C[C@@H](O)[C@@H](O)N[*:3])N[*:1])[*:2]; hTyr(3S-OH,4S-OH) = N[C@H](C(=O)O)[C@H](O)[C@@H](O)c1ccc(O)cc1; Pro(3S-OH,4S-Me) = C[C@H]1CN[C@H](C(=O)O)[C@H]1O; Hyp = O=C(O)[C@@H]1C[C@@H](O)CN1
# Key:
# [1] = Pooled population PK analysis of i.v. anidulafungin; assay type: in vivo, human; conditions: patients aged 1 month to < 2 years, n = 23, i.v. LD/MD 3.0/1.5 mg/kg q.d., weight-corrected, final PK model; for Vd: Vss
# [2] = cited from earlier work
# [3] = adult patients with serious fungal infections; cited from earlier work
# [4] = cited from earlier work; remark: listed apart in the source
# [5] = infant patients at high risk for invasive fungal infections
# [6] = neonatal patients at high risk for invasive fungal infections
structure (smiles),measurement,setting,value
"CCCCCOc1ccc(-c2ccc(-c3ccc(C(=O)N[C@H]4C[C@@H](O)[C@@H](O)NC(=O)[C@@H]5[C@@H](O)[C@@H](C)CN5C(=O)[C@H]([C@@H](C)O)NC(=O)[C@H]([C@H](O)[C@@H](O)c5ccc(O)cc5)NC(=O)[C@@H]5C[C@@H](O)CN5C(=O)[C@H]([C@@H](C)O)NC4=O)cc3)cc2)cc1 [anidulafungin] ({pTerphenylCO(4''-OnC5H11)}-[Orn(4R-OH,5R-OH)]T[Hyp][hTyr(3S-OH,4S-OH)]T[Pro(3S-OH,4S-Me)]; lactam 1-C)",clearance,"[1]; human, plasma, iv, CL, Mean (SD), SD",0.35 mL/min/kg
same,Vd,"[1]; human, plasma, iv, Mean (SD), SD",0.77 L/kg
same,Vd,"[1]; human, plasma, iv, Median (range)",0.75 L/kg
same,"CL, Median (range)",[1],0.021 (0.006–0.032) L/hour/kg
same,mean CL,[2]; [5],0.25 mL/min/kg
same,mean Vss,[2]; [5],0.9 L/kg
same,median AUCss,[2]; [5],97700 ng·h/mL
same,mean CL,[2]; [6],0.333 mL/min/kg
same,mean Vss,[2]; [6],1.7 L/kg
same,median AUCss,[2]; [6],74900 ng·h/mL
same,mean CL,[3],1.0 L/h
same,chemical stability in blood,[4]; blood at physiologic temperature and pH,slow chemical degradation
same,hepatic metabolism,[4],not metabolized by the liver
same,renal CL,[4]; negligible renal clearance,< 1%
